Assay results published in patent US11090305B2, “Methods and compositions to reduce oxidative stress” (University of Massachusetts, priority 2009, dated 2021).

Assays:
[1] = system: HSCs; test: Competitive HSC transplantation, bone marrow repopulation; format: in vivo, mouse; conditions: for outcome of competitive transplant with CD45.2 WT HSCs: WT donor mice treated 2 weeks before harvest
Experimental: HSC were purified from freshly harvested bone marrow mononuclear cells as c-Kit^+Sca-1^+CD90.1^lowLin^− by FACS sorting. Recipient mice were C57BL/6 (WT) on standard chow. Recipients underwent lethal irradiation (1100 Rads delivered in 2 doses 3 hr apart). Immediately after the 2nd irradiation, recipients were anesthetized (2% isoflurane) and 10^6 HSC/0.1 ml sterile PBS were transplanted via retro-orbital injection. Mice were followed for 12 weeks before study or administration of AOM.
The functional consequence of this loss of quiescence by competitive transplantation was investigated next, insofar as the presence of quiescent HSC are critical for successful bone marrow reconstitution. HSCs from CD45.2 ApoE^−/− or HCD mice were mixed 1:1 with CD45.1 WT HSCs and then transplanted into lethally irradiated CD45.1 WT recipients.
Activation of p38 MAPK reduces HSC quiescence in Atm^−/− mice. To evaluate this phenomena in hypercholesterolemic mice, ApoE^−/− and WT mice were treated with the selective p38 MAPK inhibitor SB203580 or the MEK 1 inhibitor PD98059 for 2 weeks prior to harvest of HSCs for transplant. CD45.2 ApoE^−/− or WT HSCs with mixed 1:1 with CD45.1 WT HSCs and transplanted into lethally irradiated CD45.1 recipient mice.

[2] = system: p19^Arf, p21^Waf1, and p27^Kip1; test: RT-PCR expression of p19^Arf, p21^Waf1, p27^Kip1 in HSCs; format: in vivo, mouse
Experimental: The expression of p15^Ink4b, p16^Ink4a, p18^Ink4c, p19^ARF, P21^Waf1, and p27^Kip1 was determined using RT-PCR, a more sensitive and quantitative assay, in ApoE^−/− and WT HSCs.

[3] = system: Ca^2+-dependent NOS; test: Ca^2+-dependent NOS activity in gastrocnemius muscle, hindlimb ischemia (Example 1); format: in vivo, rat; conditions: 4 days after AdeNOS or PBS (14 days after induction of ischemia)
Experimental: A portion of the gastrocnemius muscle harvested on day 4 after AdeNOS or saline administration (14 days after induction of ischemia) was snap frozen in liquid N2 for subsequent analysis of Ca^2+-dependent NOS activity (EMD Chemicals, Gibbstown, N.J.). 50 μg of muscle protein homogenate was incubated in 10 mM NADPH, 1 μCi/μl ^14C-arginine, 6 mM CaCl2, 50 mM Tris.HCl (pH 7.4), 6 μM BH4, 2 μM FAD, and 2 μM FMN for 30 minutes at 37° C. The reaction was stopped with 400 μl of 50 mM Hepes (pH 5.5) and 5 mM EDTA. Identical samples were prepared without CaCl2 and all reactions were performed in duplicate. The radioactivity of the sample eluate was measured in a liquid scintillation counter. Enzyme activity was expressed as […] per minute per microgram protein (CPM/min/ug). The Ca^2+-NOS activity was calculated by subtracting the NOS activity measured without calcium from the total activity measured in the presence of calcium.

[4] = system: ischemic hindlimb of rats; test: Laser Doppler perfusion imaging of hindlimb blood flow (Example 1); format: in vivo, rat; conditions: days after AdeNOS or PBS administration
Experimental: Hindlimb blood flow was determined by means of laser Doppler imaging (Moor Instruments, Ltd., Devon, United Kingdom). Flow was measured preoperatively, immediately after arterial excision, immediately before AdeNOS or saline administration, and on days 4, 7, 21, and 30 thereafter. Scans were obtained during inhalation of 1% isoflurane while core body temperature was maintained between 36.8-37.2° C. by means of a heating element driven by a rectal temperature probe. Scans were repeated three times and the average for each rat determined. Data were expressed as the ratio of ischemic:non-ischemic hindlimb.

[5] = system: ischemic hindlimb of rats; test: Evaluation of muscle necrosis (NBT staining, H&E, muscle weights) (Example 1); format: in vivo, rat; conditions: 7 days after AdeNOS or PBS (17 days after induction of ischemia)
Experimental: Muscle necrosis was determined using cut sections of tibialis anterior and gastrocnemius muscle. Muscle samples were cut transversely into 3 pieces (cuts made in 2 mm increment); two sections were stained with nitroblue tetrazolium (NBT). These sections were incubated in phosphate buffered saline (pH 7.4) containing 0.033% NBT (Fischer Biotech, Austin, Tex.) and 0.133% NADH (Roche Diagnostics, Indianapolis, Ind.) for 10 min, and then fixed in 4% paraformaldehyde for 24 hours. The areas of viable (stained) and non-viable (unstained) tissue were quantified using Image Pro software (Media Cybernetics, Bethesda, Md.) and the average taken for each rat. The third cut muscle section was used for H&E staining.

[6] = system: wt MSC; test: Nox 4 expression and DCF staining in wt MSC after insulin treatment; format: cell-based, mouse; conditions: WT MSCs, increased concentrations
Experimental: (§1) Adipocytes were identified by Oil Red O staining. m±sd, n=4, *p<0.05 vs control. […] Endothelial cells were identified by CD31 staining. m±sd, n=4, *p<0.05 vs control, #p<0.05 vs 5 nM.

[7] = system: wt MSC; test: Response of wt MSC to adipogenic medium (Oil Red O staining); format: cell-based, mouse; conditions: WT MSCs, increased concentrations
Experimental: as §1

[8] = system: wt MSC; test: Response of wt MSC to endogenic medium (CD31 staining); format: cell-based, mouse; conditions: WT MSCs, increased concentrations
Experimental: as §1

[9] = system: wt MSC; test: Basal PPARγ, adiponectin, eNOS and p-eNOS expression in wt MSC; format: cell-based, mouse; conditions: WT MSCs, increased concentrations
Experimental: as §1

[10] = system: Notch1; test: Notch1 expression in HSCs and lymphoid progenitors (Example 5); format: in vivo, mouse
Experimental: Cells were stained with monoclonal antibodies conjugated to various fluoroprobes. These antibodies included: Notch1, cKit (2B8), Sca-1 (E13-161.7), CD4 (L3T4), CD8 (53-6.72), CD90.1, CD25, CD44, TCRβ, NK1.1, γδTCR, CD45.1, CD45.2. The lineage cocktail consisted of CD4, CD8, B220 (RA3-6B2), TER-119, Mac-1 (MI/70), and Gr-1 (RB6-8C5). All antibodies were purchased from BD Bioscience (San Diego, Calif.). FACS analysis was carried out on a FACS Diva.
The Notch family is an evolutionarily conserved system of receptors and ligands that play a fundamental role in regulating cell-fate decision in many types of stem and progenitor cells, including HSCs. Notch1 plays a critical role in lymphocyte differentiation, wherein expression of Notch1 favors T cell differentiation. To clarify the effects of hypercholesterolemia on the expression Notch family, the expression of Notch family was screened in HSCs isolated from WT and ApoE^−/− mice. The percentage of HSCs expressing of Notch1 was higher in hypercholesterolemic than WT mice, whereas no differences in Notch2, Notch4, or Delta-like-1 were noted among groups (FIG. 47A). FIGS. 47A-47D show notch 1 expression is greater in HSCs from hypercholesterolemic mice. […] (B) Within the HSC population, a higher percentage of long term-HSCs expressed Notch1 than did short term-HSCs. This difference was evident in both WT and ApoE^−/− mice, although the percentage of short term-HSCs expressing Notch1 was twofold higher in ApoE^−/− than WT mice. […] (D) Treatment of ApoE^−/−, but not WT mice with SB203580 reduced the percentage of HSCs expressing Notch1. m±sd, n=5, *p<0.05 vs. WT, †p<0.05 vs. ApoE or HCD, p<0.05 vs. long-term HSCs.

[11] = system: eNOS; test: eNOS expression in gastrocnemius muscle by western blotting (Example 2); format: in vivo, rat; conditions: dietary supplements from 7 days before ischemia; 14 days after induction of ischemia
Experimental: (§2) Rats were sacrificed 14 days after induction of ischemia for measurement of gastrocnemius muscle eNOS and nitrotyrosine expression. […] Samples were homogenized in liquid nitrogen and transferred to NP-40 lysis buffer, comprised of 50 mM HEPES (pH 7.5), 150 mM NaCl, 10% glycerol, 1.5 mM MgCl2, 1 mM EDTA, 100 mM NaF, 1% NP 40, 1 mM PMSF, and […] aprotinin. The lysates were centrifuged, the supernatant recovered, and the protein concentration determined (Pierce Biotechnology, Rockford, Ill.). […] Membranes were incubated overnight at 4° C. with mouse monoclonal anti-nitrotyrosine (Cayman Chemical Co., Ann Arbor, Mich., 1:1000) or mouse monoclonal anti-eNOS (BD Transduction Laboratories, San Diego, Calif., 1:1000) and then incubated for 2 h with horseradish peroxidase-conjugated anti-mouse IgG antibody (Pierce Biotechnology, 1:5000). Immunoreactive bands were visualized using the enhanced chemiluminescence system (Amersham, Arlington Heights, Ill.). Band density was quantitated by standard densitometry and the intensity of the band of interest expressed as a function of the α-tubulin band.

[12] = system: Ca^2+-dependent NOS; test: Ca^2+-dependent NOS activity in gastrocnemius muscle (Example 2); format: in vivo, rat; conditions: 14 days after induction of ischemia
Experimental: (§3) Rats were sacrificed 14 days after induction of ischemia for determination of gastrocnemius muscle NOS activity. […] Muscles were homogenized in ice-cold buffer (250 mM Tris-HCl, pH 7.4, 10 mM EDTA, 10 mM EGTA), centrifuged, and the protein in the supernatant adjusted to 5 μg/ml. Samples were incubated in 10 mM NADPH, 1 μCi/μl ^14C-Arg, 6 mM CaCl2, 50 mM Tris.HCl (pH 7.4), 6 μM BH4, 2 uM FAD, and 2 μM FMN for 30 minutes at 37° C. The reaction was stopped with 400 μl of 50 mM Hepes, pH 5.5, 5 mM EDTA. Identical samples were prepared without CaCl2 and all reactions were performed in duplicate. The radioactivity of the sample eluate was measured and expressed as CPM/μg protein. The Ca^2+-dependent NOS activity, which corresponds to the sum of the endothelial and neural NOS isoforms, was calculated by subtracting the NOS activity measured in the absence of CaCl2) from the NOS activity measured in the presence of CaCl2). The Ca^2+-independent NOS activity corresponds to inflammatory isoform of NOS, or iNOS.

[13] = system: Ca^2+-independent NOS (iNOS); test: Ca^2+-independent NOS activity in gastrocnemius muscle (Example 2); format: in vivo, rat; conditions: 14 days after induction of ischemia
Experimental: as §3

[14] = system: nitrotyrosine; test: Nitrotyrosine accumulation in gastrocnemius muscle by western blotting (Example 2); format: in vivo, rat; conditions: 14 days after induction of ischemia
Experimental: as §2

[15] = system: PAD patients; conditions: acute or short term supplementation, literature; cited from earlier work
[16] = ApoE^−/− mice, in vivo treatment

COc1cccc(-c2cc(=O)c3ccccc3o2)c1N [PD98059]
outcome of competitive transplant with CD45.2 WT HSCs [1]: Neither drug affected the outcome
HSC expression of p19^Arf, p21^Waf1, and p27^Kip1 [2, 16]: had no effect
HSC expression of p19^Arf, p21^Waf1, and p27^Kip1 ([2]; WT HSCs): neither drug affected expression of these proteins in WT HSCs

C[C@H](O)[C@H](O)[C@H]1CNc2nc(N)[nH]c(=O)c2N1 [BH4, tetrahydrobiopterin]
Ca^2+-dependent NOS activity in gastrocnemius muscle [3]: no effect
hindlimb blood flow recovery [4]: no effect
extent of muscle necrosis (NBT staining) [5]: no effect

insulin: insulin treatment of wt MSC
Nox 4 expression and oxidative stress [6]: increased Nox 4 expression and oxidative stress
differentiation towards adipocytes [7]: increased differentiation towards adipocytes
differentiation towards endothelial cells [8]: decreased differentiation towards endothelial cells
PPARgamma expression [9]: increased PPARgamma
p-eNOS expression [9]: decreased p-eNOS expression

C[S+]([O-])c1ccc(-c2nc(-c3ccncc3)c(-c3ccc(F)cc3)[nH]2)cc1 (stereo not shown) [SB203580]
percentage of CD45.2^+ bone marrow mononuclear cells 12 weeks after competitive transplantation ([1]; ApoE^−/− donor mice treated before HSC harvest (NAC 4 weeks; SB203580, PD98059 2 weeks)): significantly improved the efficacy of ApoE^−/− HSCs in the competitive transplant paradigm
outcome of competitive transplant with CD45.2 WT HSCs [1]: Neither drug affected the outcome
HSC expression of p19^Arf, p21^Waf1, and p27^Kip1 [2, 16]: significantly reduced HSC expression of p19^Arf, p21^Waf1, and p27^Kip1
HSC expression of p19^Arf, p21^Waf1, and p27^Kip1 ([2]; WT HSCs): neither drug affected expression of these proteins in WT HSCs
percentage of HSCs expressing Notch1 ([10]; WT mice): did not affect the WT group
percentage of HSCs expressing Notch1 ([10]; hypercholesterolemic mice (ApoE^−/−, HCD), in vivo treatment): significantly reduced the percentage of ApoE^−/− HSCs expressing Notch1

L-arginine α-ketoglutarate
eNOS expression in the ischemic gastrocnemius muscle [11]: significantly greater than that of rats fed normal chow
Ca^2+-dependent NOS activity in the ischemic gastrocnemius muscle [12]: greater than that of rats fed normal chow
Ca^2+-independent NOS activity in the ischemic gastrocnemius muscle [13]: statistically similar to the normal chow group
nitrotyrosine level in the ischemic gastrocnemius muscle [14]: significantly less than the level noted in rats fed normal chow

O=C1O[C@H]([C@@H](O)CO)C(O)=C1O [vitamin C, L-ascorbic acid]
PAD symptoms [15]: reduce PAD symptoms
